Measured values: patent US20050095240A1, “NaCT as a target for lifespan expansion and weight reduction” (Medical College of Georgia Research, priority 2002, published 2005)
Several values for one entry are separate records, joined by “and”; a condition that tells them apart may be missing. Equal values may be shown once. Read-outs that look alike come from different tables or passages of the source.

Key:
drIndy = drIndy (Drosophila melanogaster, UniProt Q9VVT2)
ceNaCT = biological target: T1, ceNaCT (Caenorhabditis elegans, UniProt P32739, I91S/L182M); test: Uptake via ceNaCT expressed in HRPE cells
T1 sequence (P32739 1-551 I91S/L182M): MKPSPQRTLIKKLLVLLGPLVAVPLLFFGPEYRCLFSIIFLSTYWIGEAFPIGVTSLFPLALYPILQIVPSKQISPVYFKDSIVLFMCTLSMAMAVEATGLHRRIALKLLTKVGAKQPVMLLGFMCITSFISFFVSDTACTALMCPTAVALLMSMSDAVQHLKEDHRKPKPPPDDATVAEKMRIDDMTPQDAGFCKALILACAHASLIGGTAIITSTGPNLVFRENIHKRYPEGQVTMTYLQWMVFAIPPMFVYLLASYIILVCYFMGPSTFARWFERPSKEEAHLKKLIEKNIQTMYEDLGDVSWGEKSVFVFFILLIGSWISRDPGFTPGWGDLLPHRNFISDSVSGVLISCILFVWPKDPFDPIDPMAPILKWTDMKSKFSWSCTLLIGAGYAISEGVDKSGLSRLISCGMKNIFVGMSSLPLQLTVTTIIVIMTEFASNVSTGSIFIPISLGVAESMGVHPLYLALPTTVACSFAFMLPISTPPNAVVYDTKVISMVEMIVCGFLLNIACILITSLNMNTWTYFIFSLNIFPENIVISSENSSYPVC

rat NaCT = biological target: T2, rat NaCT (Rattus norvegicus, UniProt Q8CJ44); test: Uptake via rat NaCT expressed in HRPE cells; format: cell-based; conditions: for Citrate Uptake, cDNA / Citrate Uptake, cDNA-specific: pH 7.5
T2 sequence (Q8CJ44 1-572): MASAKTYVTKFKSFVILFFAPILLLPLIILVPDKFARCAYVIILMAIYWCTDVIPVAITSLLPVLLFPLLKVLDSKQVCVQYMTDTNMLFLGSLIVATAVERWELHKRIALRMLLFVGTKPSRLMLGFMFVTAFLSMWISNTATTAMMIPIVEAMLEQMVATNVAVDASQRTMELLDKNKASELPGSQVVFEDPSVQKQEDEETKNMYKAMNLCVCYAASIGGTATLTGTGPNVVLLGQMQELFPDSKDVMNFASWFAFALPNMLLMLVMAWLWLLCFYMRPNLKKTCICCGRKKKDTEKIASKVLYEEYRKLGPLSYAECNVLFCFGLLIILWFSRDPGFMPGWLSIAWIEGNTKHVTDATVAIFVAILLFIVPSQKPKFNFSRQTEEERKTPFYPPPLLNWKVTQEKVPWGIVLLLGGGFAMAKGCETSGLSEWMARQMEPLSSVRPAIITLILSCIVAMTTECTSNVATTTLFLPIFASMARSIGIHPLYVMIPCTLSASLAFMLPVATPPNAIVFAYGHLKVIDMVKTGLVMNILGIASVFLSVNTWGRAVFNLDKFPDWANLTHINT

human NaCT = human NaCT (Homo sapiens, UniProt Q86YT5); test: Uptake via human NaCT expressed in HRPE cells; format: cell-based; conditions: for Citrate Uptake, cDNA / Citrate Uptake, cDNA-specific: pH 7.5
mouse NaCT = biological target: T3, mouse NaCT (Mus musculus, UniProt Q67BT3); test: Transport via mouse NaCT expressed in HRPE cells; format: cell-based
T3 sequence (Q67BT3 1-572): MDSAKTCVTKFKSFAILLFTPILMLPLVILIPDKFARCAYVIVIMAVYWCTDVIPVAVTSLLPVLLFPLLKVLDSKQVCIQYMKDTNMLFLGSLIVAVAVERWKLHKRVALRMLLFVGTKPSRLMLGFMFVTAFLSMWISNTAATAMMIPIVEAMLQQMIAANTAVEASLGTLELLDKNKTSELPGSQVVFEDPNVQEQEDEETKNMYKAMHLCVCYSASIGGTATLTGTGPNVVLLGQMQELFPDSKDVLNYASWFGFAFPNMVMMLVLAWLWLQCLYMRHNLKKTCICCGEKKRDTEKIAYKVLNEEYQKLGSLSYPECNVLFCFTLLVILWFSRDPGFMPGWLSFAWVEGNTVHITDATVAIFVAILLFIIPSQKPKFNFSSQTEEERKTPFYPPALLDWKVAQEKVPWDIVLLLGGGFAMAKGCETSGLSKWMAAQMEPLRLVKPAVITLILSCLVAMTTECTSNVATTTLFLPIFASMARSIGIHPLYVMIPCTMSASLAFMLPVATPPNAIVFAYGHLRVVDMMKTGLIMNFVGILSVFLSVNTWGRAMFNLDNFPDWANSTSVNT

[1] = [3H]succinate 40 nM, inhibitor 2.5 mM
[2] = [3H]succinate 40 nM, inhibitor 2.5 mM, NaCl buffer pH 7.5
[3] = [14C]citrate 7 μM, indicated salt
[4] = [14C]citrate 7 μM, rat NaCT cDNA-transfected HRPE, indicated salt
[5] = relative to NaCl, [14C]citrate 7 μM
[6] = [14C]-citrate 20 μM, human NaCT cDNA-transfected HRPE, indicated salt
[7] = [14C]-citrate 20 μM, indicated salt
[8] = citrate 35 μM, drIndy cDNA-transfected HRPE cells, indicated salt

Chain of drIndy (Q9VVT2 19-590): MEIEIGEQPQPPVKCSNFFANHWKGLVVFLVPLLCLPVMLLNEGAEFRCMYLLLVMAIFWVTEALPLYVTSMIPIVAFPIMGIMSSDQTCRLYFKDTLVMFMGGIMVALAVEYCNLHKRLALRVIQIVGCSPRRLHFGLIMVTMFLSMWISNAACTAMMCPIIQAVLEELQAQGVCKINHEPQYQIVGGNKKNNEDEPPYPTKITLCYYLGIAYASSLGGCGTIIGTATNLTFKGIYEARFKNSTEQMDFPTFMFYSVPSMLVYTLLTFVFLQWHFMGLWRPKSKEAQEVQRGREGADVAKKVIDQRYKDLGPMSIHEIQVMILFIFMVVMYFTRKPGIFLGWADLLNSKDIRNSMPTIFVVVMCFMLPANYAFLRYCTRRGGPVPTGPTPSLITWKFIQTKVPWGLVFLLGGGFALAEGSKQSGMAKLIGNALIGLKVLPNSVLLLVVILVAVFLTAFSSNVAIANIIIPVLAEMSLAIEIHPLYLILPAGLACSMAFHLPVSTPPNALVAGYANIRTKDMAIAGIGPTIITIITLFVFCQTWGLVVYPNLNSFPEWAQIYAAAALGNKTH
Chain of human NaCT (Q86YT5 whole entry): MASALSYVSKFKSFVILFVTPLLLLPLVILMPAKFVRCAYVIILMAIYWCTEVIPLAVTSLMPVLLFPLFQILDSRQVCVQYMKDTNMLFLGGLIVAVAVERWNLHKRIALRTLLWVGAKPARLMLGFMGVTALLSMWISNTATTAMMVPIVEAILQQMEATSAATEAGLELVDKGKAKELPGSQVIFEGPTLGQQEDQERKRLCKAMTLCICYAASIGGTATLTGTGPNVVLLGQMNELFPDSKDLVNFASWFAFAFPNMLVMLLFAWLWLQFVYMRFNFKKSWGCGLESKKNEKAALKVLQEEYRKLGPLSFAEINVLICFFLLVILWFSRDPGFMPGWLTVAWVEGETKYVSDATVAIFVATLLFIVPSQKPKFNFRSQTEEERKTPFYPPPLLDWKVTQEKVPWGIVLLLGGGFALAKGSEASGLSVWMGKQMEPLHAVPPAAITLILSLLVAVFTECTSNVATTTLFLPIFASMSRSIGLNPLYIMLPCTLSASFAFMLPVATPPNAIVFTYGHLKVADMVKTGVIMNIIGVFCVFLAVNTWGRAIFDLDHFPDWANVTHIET

Compound: O=C(O)CCC(=O)C(=O)O [2-Oxoglutarate]
- % Control of cDNA-specific [^3H]succinate uptake (drIndy): 5%
- cDNA-specific [^3H] succinate uptake (drIndy; pH 7.5): 3.0 ± 1.0 fmol/106 cells per min
- Competition with [^14C]citrate for ceNaCT-mediated uptake (ceNaCT): inhibited markedly

Compound: COC(=O)CCC(=O)OC [Dimethylsuccinate]
- % Control of cDNA-specific [^3H]succinate uptake (drIndy; [1]): 13%
- cDNA-specific [^3H] succinate uptake (drIndy; [2]): 14.1 ± 0.8 fmol/106 cells per min

Compound: O=C(O)/C=C/C(=O)O [Fumarate]
- [^14C]Citrate uptake (cDNA-specific) (rat NaCT): 17.7 ± 1.4 Pmol/10^6 cells/min
- [^14C]Citrate uptake, % (rat NaCT): 16%
- [^14C]-Citrate Uptake (cDNA-specific) (human NaCT): 43.7 ± 5.0 pmol/10^6 cells/min
- [^14C]-Citrate Uptake, % (human NaCT): 92%
- IC50 (human NaCT; read-out: IC50 for inhibition of human NaCT-mediated [^14C]-citrate uptake): 12.6 ± 5 mM
- [^3H]-Succinate transport (NaCT-specific) (mouse NaCT): 0.007 ± 0.002 pmol/10^6 cells/min
- [^3H]-Succinate transport, % (mouse NaCT): 5%
- [^14C]-Citrate transport (NaCT-specific) (mouse NaCT): 1.6 ± 0.4 pmol/10^6 cells/min
- [^14C]-Citrate transport, % (mouse NaCT): 4%
- % Control of cDNA-specific [^3H]succinate uptake (drIndy): 6%
- cDNA-specific [^3H] succinate uptake (drIndy; pH 7.5): 4.8 ± 0.3 fmol/106 cells per min
- Competition with [^14C]citrate for ceNaCT-mediated uptake (ceNaCT): inhibited markedly

Compound: [Cl-].[K+] [KCl]
- Citrate Uptake, cDNA-specific, % (rat NaCT): 0%
- Citrate Uptake, cDNA (rat NaCT): 0.6 ± 0.1 pmol/10^6 cells/min
- Citrate Uptake, cDNA-specific (rat NaCT): 0.1 ± 0.1 pmol/10^6 cells/min
- Citrate Uptake, cDNA-specific, % (human NaCT): 0%
- Citrate Uptake, cDNA (human NaCT): 1.1 ± 0.1 pmol/10^6 cells/min
- Citrate Uptake, cDNA-specific (human NaCT): −0.1 ± 0.1^ pmol/10^6 cells/min
- Citrate uptake, drIndy (drIndy): 33.8 ± 2.7 pmol/10^6 cells per min
- Fold Increase of citrate uptake (drIndy vs vector) (drIndy): 19.9 fold
- Succinate uptake, drIndy (drIndy; pH 7.5): 111.0 ± 8.5 fmol/10^6 cells per min

Compound: [Cl-].[Li+] [LiCl]
- Citrate Uptake, cDNA-specific (rat NaCT; [3]): 1.1 ± 0.1 pmol/10^6 cells/min
- Citrate Uptake, cDNA (rat NaCT; [4]): 1.6 ± 0.1 pmol/10^6 cells/min
- Citrate Uptake, cDNA-specific, % (rat NaCT; [5]): 3%
- Citrate Uptake, cDNA (human NaCT; [6]): 2.0 ± 0.1 pmol/10^6 cells/min
- Citrate Uptake, cDNA-specific (human NaCT; [7]): 0.7 ± 0.1 pmol/10^6 cells/min
- Citrate Uptake, cDNA-specific, % (human NaCT; relative to NaCl): 1%
- Citrate uptake, drIndy (drIndy; [8]): 52.1 ± 2.2 pmol/10^6 cells per min
- Fold Increase of citrate uptake (drIndy vs vector) (drIndy; citrate 35 μM, indicated salt): 27.4 fold

Compound: O=C(O)CC(=O)O [Malonate, malonate]
- [^14C]-Citrate Uptake (cDNA-specific) (human NaCT): 57.3 ± 3.2 pmol/10^6 cells/min
- [^14C]-Citrate Uptake, % (human NaCT): 120%
- % Control of cDNA-specific [^3H]succinate uptake (drIndy): 71%
- cDNA-specific [^3H] succinate uptake (drIndy; pH 7.5): 98.8 ± 7.1 fmol/106 cells per min
- Competition with [^14C]citrate for ceNaCT-mediated uptake (ceNaCT): failed to inhibit the uptake of citrate

Compound: OC[C@@H](O)[C@@H](O)[C@H](O)[C@H](O)CO [Mannitol]
- Citrate Uptake, cDNA-specific (rat NaCT; [3]): 0.1 ± 0.1 pmol/10^6 cells/min
- Citrate Uptake, cDNA (rat NaCT; [4]): 0.7 ± 0.1 pmol/10^6 cells/min
- Citrate Uptake, cDNA-specific, % (rat NaCT; [5]): 0%
- Citrate uptake, drIndy (drIndy; [8]): 26.3 ± 0.3 pmol/10^6 cells per min
- Fold Increase of citrate uptake (drIndy vs vector) (drIndy; citrate 35 μM, indicated salt): 15.5 fold

Compound: CC(=O)N[C@@H](CC(=O)O)C(=O)O [N-Acetylaspartate]
- % Control of cDNA-specific [^3H]succinate uptake (drIndy; [1]): 43%
- cDNA-specific [^3H] succinate uptake (drIndy; [2]): 58.4 ± 1.5 fmol/106 cells per min

Compound: CNC[C@H](O)[C@@H](O)[C@H](O)[C@H](O)CO.Cl [NMDG chloride, N-methyl-D-glucamine chloride]
- Citrate Uptake, cDNA-specific (rat NaCT; [3]): 0.4 ± 0.3 pmol/10^6 cells/min
- Citrate Uptake, cDNA (rat NaCT; [4]): 1.6 ± 0.3 pmol/10^6 cells/min
- Citrate Uptake, cDNA-specific, % (rat NaCT; [5]): 1%
- Citrate Uptake, cDNA (human NaCT; [6]): 1.3 ± 0.2 pmol/10^6 cells/min
- Citrate Uptake, cDNA-specific (human NaCT; [7]): −0.1 ± 0.2^ pmol/10^6 cells/min
- Citrate Uptake, cDNA-specific, % (human NaCT; relative to NaCl): 0%
- Citrate uptake, drIndy (drIndy; [8]): 25.4 ± 1.8 pmol/10^6 cells per min
- Fold Increase of citrate uptake (drIndy vs vector) (drIndy; citrate 35 μM, indicated salt): 13.4 fold

Compound: [Cl-].[Na+] [NaCl]
- Citrate Uptake, cDNA-specific (rat NaCT; [3]): 38.0 ± 3.3 pmol/10^6 cells/min
- Citrate Uptake, cDNA (rat NaCT; [4]): 38.8 ± 3.3 pmol/10^6 cells/min
- Citrate Uptake, cDNA-specific, % (rat NaCT; [5]): 100%
- Citrate Uptake, cDNA (human NaCT; [6]): 59.9 ± 3.9 pmol/10^6 cells/min
- Citrate Uptake, cDNA-specific (human NaCT; [7]): 58.4 ± 3.9 pmol/10^6 cells/min
- Citrate Uptake, cDNA-specific, % (human NaCT; relative to NaCl): 100%
- Citrate uptake, drIndy (drIndy; [8]): 57.4 ± 3.3 pmol/10^6 cells per min
- Fold Increase of citrate uptake (drIndy vs vector) (drIndy; citrate 35 μM, indicated salt): 26.1 fold

Compound: [Na+] [Na^+]
- Hill coefficient (nH) of Na+ dependence of citrate uptake (rat NaCT): 3.3±0.3
- Hill coefficient (nH) of Na+ activation (mouse NaCT): 3.3±0.6 and 2.0±0.3
- EC50 (mouse NaCT; read-out: K0.5 for Na+ (half-maximal activation of the transport process)): 72 ± 6 mM

Compound: CC(=O)C(=O)O [Pyruvate, pyruvate]
- [^14C]Citrate uptake, % (rat NaCT; [14C]citrate 14 μM, unlabeled compound 2.5 mM, none = 100): 83%
- [^14C]-Citrate Uptake, % (human NaCT; [14C]-citrate 20 μM, unlabeled compound 2.5 mM, none = 100): 108%
- [^3H]-Succinate transport, % (mouse NaCT; [3H]-succinate 0.1 μM, substrate analog 2 mM, control = 100): 104%
- [^14C]-Citrate transport, % (mouse NaCT; [14C]-citrate 10 μM, substrate analog 2 mM, control = 100): 84%
- % Control of cDNA-specific [^3H]succinate uptake (drIndy; [1]): 21%

Compound: O=C([O-])[C@H](O)[C@@H](O)[C@H](O)[C@H](O)CO.[Na+] [Sodium gluconate]
- Citrate Uptake, cDNA-specific (rat NaCT; [3]): 29.1 ± 2.3 pmol/10^6 cells/min
- Citrate Uptake, cDNA (rat NaCT; [4]): 29.6 ± 2.3 pmol/10^6 cells/min
- Citrate Uptake, cDNA-specific, % (rat NaCT; [5]): 77%
- Citrate Uptake, cDNA (human NaCT; [6]): 61.7 ± 4.7 pmol/10^6 cells/min
- Citrate Uptake, cDNA-specific (human NaCT; [7]): 60.1 ± 4.7 pmol/10^6 cells/min
- Citrate Uptake, cDNA-specific, % (human NaCT; relative to NaCl): 103%
- Citrate uptake, drIndy (drIndy; [8]): 144.2 ± 1.6 pmol/10^6 cells per min
- Fold Increase of citrate uptake (drIndy vs vector) (drIndy; citrate 35 μM, indicated salt): 65.6 fold

Compound: O=C(O)CC(O)(C(=O)O)C(O)C(=O)O (stereo not shown) [hydroxycitrate]
- Inhibition of citrate uptake via NaCT (rat NaCT; 0.1 mM hydroxycitrate, rat NaCT in HRPE cells): 30-40%
- Inhibition of citrate uptake via NaCT (human NaCT; 0.1 mM hydroxycitrate, human NaCT in HRPE cells): 30-40%

Compound: CC(O)CC(=O)O (stereo not drawn) [β-Hydroxybutyrate]
- % Control of cDNA-specific [^3H]succinate uptake (drIndy; [1]): 91%
- cDNA-specific [^3H] succinate uptake (drIndy; [2]): 134.0 ± 9.0 fmol/106 cells per min
